Measurements taken from US20120165331A1, “Di/tri-aza-spiro-C9-C11alkanes” (priority 2010, published 2012).

Key:
[1] = molecular target: T1, human orexin 1 receptor (Homo sapiens, UniProt O43613); experiment: Calcium accumulation in cells (FLIPR), antagonism of orexin A, human orexin 1 receptor; format: cell-based; details: for Ki: calcium accumulation, antagonism of orexin A, Cheng-Prusoff corrected, read-out: FLIPR hOx1R Ki
T1 construct: expressed in transfected cells
T1 sequence (O43613 1-425): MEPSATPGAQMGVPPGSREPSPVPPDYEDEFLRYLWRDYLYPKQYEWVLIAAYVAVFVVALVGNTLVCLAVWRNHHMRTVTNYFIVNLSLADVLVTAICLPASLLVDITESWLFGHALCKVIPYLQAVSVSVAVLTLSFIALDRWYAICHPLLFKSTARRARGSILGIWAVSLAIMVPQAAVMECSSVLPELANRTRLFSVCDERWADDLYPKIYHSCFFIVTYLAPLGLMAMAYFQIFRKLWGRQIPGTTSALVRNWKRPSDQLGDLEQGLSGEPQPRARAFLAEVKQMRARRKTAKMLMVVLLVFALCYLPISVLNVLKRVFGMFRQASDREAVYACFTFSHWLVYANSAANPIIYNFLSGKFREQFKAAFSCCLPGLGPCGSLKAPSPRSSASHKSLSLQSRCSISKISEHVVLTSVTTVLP

[2] = molecular target: T1, human orexin 1 receptor; experiment: Radioligand binding assay ([3H]-SB649868 competition), human orexin 1 receptor; details: radioligand [3H]-SB649868; read-out: Binding hOx1R Kd
Procedure: (§1) Radioligand Binding Assay
(§2) For crude cell membrane preparations, cells (CHO, Chinese hamster ovary or HEK, human embryonic kidney) expressing human orexin 1 or human orexin 2 receptors, were washed with HEPES (10 mM, pH 7.5), scraped off the culture plates with the same buffer, and centrifuged at 4° C. for 5 min at 2500×g. The cell pellet was either stored at −80° C. or used directly. Before the experiments, cell membranes were re-suspended in binding assay buffer (10 mM HEPES, 0.5% (w/v) bovine serum albumin, pH 7.5) by homogenisation with a Polytron homogeniser at 50 Hz for 20 s. Cell membranes were also used as made available by commercial providers.
(§3) Bound radioactivity was measured, and data were analysed with the program XLFIT or Graphpad Prism. Protein concentration was determined according to the Bradford/BioRad Protein Assay Kit.
(§4) In competition experiments, cell homogenates (150 μl) were incubated in assay buffer (10 mM HEPES, pH 7.5, 0.5% (w/v) bovine serum albumin, 5 mM MgCl2, 1 mMCaCl2, and tween 0.05%) for 1 h at room temperature with about 1 nM of the radioligand [^3H]-SB649868, 66 Ci/mmole, 50 μl), and with various concentrations of compounds of the invention (50 μl) in triplicates; non-specific binding was determined in the presence of almorexant (10 μM). Reactions were terminated by vacuum filtration, 3 washes of ice cold wash buffer (Tris-HCl pH 7.4/10 mM, with NaCl 154 mM). Competition data is expressed in Table 1 as Kd [μM].

[3] = molecular target: T2, human orexin 2 receptor (Homo sapiens, UniProt O43614); experiment: Radioligand binding assay ([3H]-SB649868 competition), human orexin 2 receptor; details: radioligand [3H]-SB649868; read-out: Binding hOx2R Kd
T2 construct: expressed in transfected cells
T2 sequence (O43614 1-444): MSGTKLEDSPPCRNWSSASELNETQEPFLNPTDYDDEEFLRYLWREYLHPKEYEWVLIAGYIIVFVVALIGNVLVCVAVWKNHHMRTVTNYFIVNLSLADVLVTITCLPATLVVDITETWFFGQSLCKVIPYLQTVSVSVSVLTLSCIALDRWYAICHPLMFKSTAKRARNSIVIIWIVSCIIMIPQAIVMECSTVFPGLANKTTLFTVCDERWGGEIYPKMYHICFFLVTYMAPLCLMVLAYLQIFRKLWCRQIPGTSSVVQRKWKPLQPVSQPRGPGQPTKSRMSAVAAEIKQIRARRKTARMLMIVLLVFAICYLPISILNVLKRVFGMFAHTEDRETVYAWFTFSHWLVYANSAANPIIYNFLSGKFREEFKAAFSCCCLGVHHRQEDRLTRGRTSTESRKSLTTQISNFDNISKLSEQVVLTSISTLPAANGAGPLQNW
Procedure: as §1, §2, §3, §4

[4] = molecular target: T2, human orexin 2 receptor; experiment: Calcium accumulation in cells (FLIPR), antagonism of orexin A, human orexin 2 receptor; format: cell-based; details: calcium accumulation, antagonism of orexin A, Cheng-Prusoff corrected; read-out: FLIPR hOx2R Ki

| Structure (SMILES) | Ki [1] | Kd [2] | Kd [3] | Ki [4] | inhibition at 10 µM ([1]; measured at a concentration of 10 μM of compound, read-out: FLIPR hOx1R % inhibition) |
| --- | --- | --- | --- | --- | --- |
| COc1cc(C)nc(N2CCC3(CC2)OCCN(Cc2c[nH]c4ncccc24)C3=O)n1 [Example 2.19, 4-((1H-Pyrrolo[2,3-b]pyridin-3-yl)methyl)-9-(4-methoxy-6-methylpyrimidin-2-yl)-1-oxa-4,9-diazaspiro[5.5]undecan-5-one] | 1.49 µM | 3.52 µM | 0.184 µM | 0.035 µM | – |
| O=C1COCC2(CCN(c3cnc4ccccc4n3)CC2)N1Cc1cccc(-c2ccccn2)c1 [Example 8.11, 1-(3-(Pyridin-2-yl)benzyl)-9-(quinoxalin-2-yl)-4-oxa-1,9-diazaspiro[5.5]undecan-2-one] | 0.053 µM | 0.053 µM | 4.54 µM | 0.783 µM | – |
| COc1cc(C)nc(N2CCC3(CCCN(Cc4ccccc4-c4nc(C)no4)C3=O)C2)n1 (centres unmarked) [Example 7.14, 2-(4-methoxy-6-methylpyrimidin-2-yl)-7-(2-(3-methyl-1,2,4-oxadiazol-5-yl)benzyl)-2,7-diazaspiro[4.5]decan-6-one] | 0.174 µM | 0.171 µM | 0.21 µM | 0.092 µM | – |
| COc1cccc(-c2ocnc2CN2CCNC3(CCN(c4nccc(OC)n4)CC3)C2=O)c1 [Example 1.12, 4-((5-(3-Methoxyphenyl)oxazol-4-yl)methyl)-9-(4-methoxy-pyrimidin-2-yl)-1,4,9-triazaspiro[5.5] undecan-5-one] | 0.621 µM | 0.686 µM | 0.23 µM | 0.065 µM | – |
| Cc1cc(C)nc(N2CCC3(CC2)NCCN(Cc2nn(C)cc2-c2cccc(N4CCOCC4)c2)C3=O)n1 [Example 1.73, 9-(4,6-dimethyl-pyrimidin-2-yl)-4-((1-methyl-4-(3-morpholinophenyl)-1H-pyrazol-3-yl)methyl)-1,4,9-triazaspiro[5.5] undecan-5-one] | 0.862 µM | 1.38 µM | 0.163 µM | 0.02 µM | – |
| Cc1cc(C)nc(N2CCC3(CC2)NCCN(Cc2nn(C)cc2-c2cccc(Cl)c2)C3=O)n1 [Example 1.42, 4-((4-(3-Chlorophenyl)-1-methyl-1H-pyrazol-3-yl)methyl)-9-(4,6-dimethyl-pyrimidin-2-yl)-1,4,9-triazaspiro[5.5] undecan-5-one] | 3.28 µM | 6.49 µM | 0.391 µM | 0.083 µM | – |
| Cc1cc(C)nc(N2CCC3(CC2)NCCN(Cc2nn(C)cc2-c2cccc(C(F)F)c2)C3=O)n1 [Example 1.71, 4-((4-(3-(difluoromethyl)phenyl)-1-methyl-1H-pyrazol-3-yl)methyl)-9-(4,6-dimethylpyrimidin-2-yl)-1,4,9-triazaspiro[5.5] undecan-5-one] | 2.06 µM | 1.7 µM | 0.227 µM | 0.03 µM | – |
| Cc1cc(C)nc(N2CCC3(CC2)OCCN(Cc2n[nH]cc2-c2ccccc2)C3=O)n1 [Example 2.13, 9-(4,6-Dimethylpyrimidin-2-yl)-4-((4-phenyl-1H-pyrazol-3-yl)methyl)-1-oxa-4,9-diazaspiro[5.5]undecan-5-one] | 1.5 µM | 1.56 µM | 0.143 µM | 0.038 µM | – |
| COc1cccc(-c2ocnc2CN2CCNC3(CCN(c4nccc(C)n4)CC3)C2=O)c1 [Example 1.10, 4-((5-(3-Methoxyphenyl)oxazol-4-yl)methyl)-9-(4-methyl-pyrimidin-2-yl)-1,4,9-triazaspiro[5.5] undecan-5-one] | 2.61 µM | 3.97 µM | 0.164 µM | 0.084 µM | – |
| COc1ccnc(N2CCC3(CCCN(Cc4c[nH]c5ccccc45)C3=O)C2)n1 (centres unmarked) [Example 7.4, 7-((1H-Indol-3-yl)methyl)-2-(4-methoxypyrimidin-2-yl)-2,7-diazaspiro[4.5]decan-6-one] | 0.317 µM | 0.201 µM | 0.152 µM | 0.059 µM | – |
| O=C1N(Cc2c[nH]c3ccccc23)CCCC12CCN(c1nc3ccccc3[nH]1)C2 (centres unmarked) [Example 7.15, 7-((1H-indol-3-yl)methyl)-2-(1H-benzo[d]imidazol-2-yl)-2,7-diazaspiro[4.5]decan-6-one] | 0.474 µM | 0.043 µM | 0.028 µM | 0.068 µM | – |
| Cc1cc(C)nc(N2CCC3(CC2)OCCN(Cc2n[nH]c4ccccc24)C3=O)n1 [Example 2.2, 9-(4,6-Dimethyl-pyrimidin-2-yl)-4-(1H-indazol-3-ylmethyl)-1-oxa-4,9-diaza-spiro[5.5]undecan-5-one] | 1.8 µM | 1.84 µM | 0.071 µM | 0.055 µM | – |
| Cc1cc(C)nc(N2CCC3(CC2)NCCN(Cc2nn(C)cc2-c2cccc(C(C)C)c2)C3=O)n1 [Example 1.68, 9-(4,6-dimethyl-pyrimidin-2-yl)-4-((4-(3-isopropyl-phenyl)-1-methyl-1H-pyrazol-3-yl)methyl)-1,4,9-triazaspiro[5.5] undecan-5-one] | 0.945 µM | 1.44 µM | 0.013 µM | 0.004 µM | – |
| Cc1cc(C)nc(N2CCC3(CC2)NCCN(Cc2nn(C)nc2-c2cccc(N4CCOCC4)c2)C3=O)n1 [Example 1.77] | 2.88 µM | 2.84 µM | 0.225 µM | 0.056 µM | – |
| COc1cc(C)nc(N2CC[C@@]3(CCCN(Cc4c[nH]c5ccccc45)C3=O)C2)n1 (single isomer, unassigned) [Example 7.10] | 0.139 µM | 0.75 µM | 0.238 µM | 0.014 µM | – |
| Cc1cc(C)nc(N2CCC3(CC2)NCCN(Cc2nn(C)cc2-c2cccc(OC4CC4)c2)C3=O)n1 [Example 1.62, 4-((4-(3-Cyclo-propoxyphenyl)-1-methyl-1H-pyrazol-3-yl)methyl)-9-(4,6-dimethyl-pyrimidin-2-yl)-1,4,9-triazaspiro[5.5] undecan-5-one] | 0.163 µM | 0.142 µM | 0.008 µM | 0.001 µM | – |
| COc1cc(C)nc(N2CCC3(CCN(Cc4nn(C)nc4-c4cccc(C)c4)C3=O)C2)n1 (centres unmarked) [Example 5.44, 7-(4-methoxy-6-methylpyrimidin-2-yl)-2-((2-methyl-5-(m-tolyl)-2H-1,2,3-triazol-4-yl)methyl)-2,7-diazaspiro[4.4]nonan-1-one] | 0.068 µM | 0.106 µM | 0.02 µM | 0.0034 µM | – |
| COc1cccc(-c2oc(C)nc2CN2CCNC3(CCN(c4nc(C)cc(C)n4)CC3)C2=O)c1 [Example 1.14, 9-(4,6-Dimethylpyrimidin-2-yl)-4-((5-(3-methoxyphenyl)-2-methyloxazol-4-yl)methyl)-1,4,9-triazaspiro[5.5] undecan-5-one] | 0.298 µM | 0.445 µM | 0.022 µM | 0.002 µM | – |
| Cc1ccc(C)c(CN2C(=O)COCC23CCN(c2nc(C)cc(C)n2)CC3)c1 [Example 8.15, 1-(2,5-Dimethylbenzyl)-9-(4,6-dimethylpyrimidin-2-yl)-4-oxa-1,9-diazaspiro[5.5]undecan-2-one] | – | > 10 µM | 0.165 µM | 0.028 µM | 15% |
| COc1cccc(-c2oc(C)nc2CN2CCNC3(CCN(c4nccc(OC)n4)CC3)C2=O)c1 [Example 1.17, 4-((5-(3-Methoxyphenyl)-2-methyloxazol-4-yl)methyl)-9-(4-methoxypyrimidin-2-yl)-1,4,9-triazaspiro[5.5] undecan-5-one] | 2.09 µM | 2.35 µM | 0.251 µM | 0.092 µM | – |
